# Measured values as given in patent US8466309B2, “Amino acid derivatives, method for preparing same, and therapeutic use thereof” (priority 2008, dated 2013).
# What was measured:
# Type in all cases: in vivo
# male OF1 mice [1] = experiment: Von Frey test: mechanical allodynia after partial ligature of the sciatic nerve; details: oral 50 mg/kg, maximum at 60 min, day 14 post-surgery
# Description: (§1) This test was described in detail by A. B. Malmberg and A. I. Basbaum, Partial sciatic nerve injury in the mouse as a model of neuropathic pain: behavioural and neuroanatomical correlates. Pain, (1998) 76, 215-222.
# (§2) It was conducted on male OF1 mice (Charles River), of 18-20 g, n=39, by partial ligature of the sciatic nerve on the ipsilateral side. The animals are tested in the period (3-26 days) after the operation.
# Measurement of hyperalgesia was carried out according to the method described by K. Hargreaves et al., A new sensitive method for measuring thermal nociception in cutaneous hyperalgesia, Pain, (1988), 32, 77-88, by using as a heat source, the “Plantar test” apparatus (Bioseb, France). The intensity of the nociceptive stimulus is calibrated to 8-10 s with an automatic stopping threshold (cut-off time) at 20 s. The average of the withdrawals of the paw induced by the heat, was measured on the ipsilateral paws (damaged nerve) and contralateral paws (intact nerve). […] Mechanical allodynia is measured as described by S. R. Chaplan et al., Quantitative assessment of tactile allodynia in the rat paw, J. Neurosci. […] The mechanical antiallodynic effect is measured by the method of Von Frey with filaments of increasing size exerting also increasing pressure.
# The effect of the compound of Example 10 on mechanical allodynia is measured by the Von Frey test. […]
# male OF1 mice [2] = experiment: Plantar test: thermal hyperalgesia after partial ligature of the sciatic nerve
# Description: as §1, §2
# Measurement of hyperalgesia was carried out according to the method described by K. Hargreaves et al., A new sensitive method for measuring thermal nociception in cutaneous hyperalgesia, Pain, (1988), 32, 77-88, by using as a heat source, the “Plantar test” apparatus (Bioseb, France). The intensity of the nociceptive stimulus is calibrated to 8-10 s with an automatic stopping threshold (cut-off time) at 20 s. The average of the withdrawals of the paw induced by the heat, was measured on the ipsilateral paws (damaged nerve) and contralateral paws (intact nerve). This measurement was carried out 3 times on each paw. Mechanical allodynia is measured as described by S. R. Chaplan et al., Quantitative assessment of tactile allodynia in the rat paw, J. Neurosci. Meth. (1994), 53, 55-63. The ipsilateral (lesion) and contralateral (control) paws are tested as earlier. The mechanical antiallodynic effect is measured by the method of Von Frey with filaments of increasing size exerting also increasing pressure.
# FIG. 3: Neuropathic pain model: partial ligature of the sciatic nerve (mice). Response generated by per os administration of the carrier (□) or of the compound of Example 10 (▪): removal of the paw (in second) versus time (in minutes).
# Carrier: EtOH/0.5% methylcellulose (1.5/98.5)
# Tests carried out at day 14 post-surgery; ipsilateral paw
# Abscissa: time in minutes, ordinate: withdrawal of the paw in seconds
# Plantar test: evaluation of thermal hyperalgia
# Average of the contralateral paws: compound 10 at 90 min=8.3 s.
# male OF1 mice [3] = experiment: Formalin test (phase I), number of paw lickings after oral administration; details: 120 minutes after administration (FIG. 2)
# Description: A/Formalin Test (Phase I) […]
# The animals (male OF1 mice) come from the Charles River breeder (France) and weigh 25-35 g at the beginning of the experiment. The weight of each mouse is taken into account for administering the product.
# The test is based on the procedure described by S. HUNSKAAR et al., Formalin test in mice, a useful technique for evaluating mild analgesics, J. Neurosci. Methods […], 14, 69-75.
# The mice (n=8) are individually placed in a transparent enclosure (50×25 cm) and become accustomed to this environment for 20 minutes. After this period, 20 μL of formalin (5% HCHO) in solution in saline solution (H2O, 0.9% NaCl), are injected subcutaneously on the plantar face of the right paw of the animal. A 26 syringe connected to a microsyringe is used. Each mouse is then immediately placed back into the test enclosure and pain (nociceptive) responses are measured for 5 minutes (early phase). Only the lickings of the paw are counted. […]
# The analgesic action of the product is measured by the decrease in the number of lickings of the lesioned paw, as compared with the number of lickings of the animal which has received the carrier alone. […]
Compound,"anti-allodynic effect, maximum, as % of the maximum response (non-treated control) (male OF1 mice [1]) [%]","withdrawal of the paw, average of the contralateral paws (male OF1 mice [2]; 50 mg/kg, at 90 min, intact nerve side) [s]","maximum effect on thermal hyperalgesia (male OF1 mice [2]; p.o. 50 mg/kg, at 80 min) [%]","withdrawal of the paw (ipsilateral paw) (male OF1 mice [2]; p.o. 50 mg/kg, at 80 min, plantar test, day 14 post-surgery) [s]","decrease of thermal hyperalgesia induced by partial ligature of the sciatic nerve (male OF1 mice [2]; p.o. 50 mg/kg, period from 45 to 150 min, day 14 post-surgery, ipsilateral paw)",analgesic activity at 120 minutes (male OF1 mice [3])
"CSCCC(CSSCC(Cc1ccccc1)C(=O)NCC(=O)O)NC(=O)OC(C)OC(=O)C(C)C (stereo not drawn) [Example 10, 1-{1-[2-(carboxymethyl-carbamoyl)-3-phenyl-propyl-disulfanylmethyl]-3-methylsulfanyl-propylcarbamoyl-oxy}-ethyl isobutyric acid ester]",75,8.3,100,8.2 ± 0.9,65-100%,
NH2—CH(CH2CH2SCH3)—CH2—S—S—CH2—CH(CH2C6H5)—CONH—CH2—CONH—CO—CH(CH3)—O—CO—OCH2CH3 [Compound 15],,,,,,no longer has any activity
